Test results: PubChem BioAssay AID1963866 (Molecular Pharmacology Branch, DTP, NCI, 2024)

Tested on: PDC KRAS tumor spheroids with HUVEC/MSC, viability
Experiment: Anticancer human tumor 349418-098-R-PDC patient-derived lung adenocarcinoma cell line growth inhibition [KRAS2]
Conditions: for IC50: curve of first compound; for viability, T/C: stronger effect = lower value
How it was run: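 KRAS-mutant tumor cells were grown as spheroids with HUVEC endothelial cells and human MSCs as stroma. Targeted agents were tested alone and with KRAS pathway inhibitors. Doses started at or near clinical Cmax, or 10 microM, descending half-log.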

[1] = second compound 0.1 µM, first compound 0.000316 µM
[2] = second compound 0.1 µM, first compound 0.001 µM
[3] = second compound 0.1 µM, first compound 0.00316 µM
[4] = second compound 0.1 µM, first compound 0.01 µM
[5] = second compound 0.1 µM, first compound 0.0316 µM
[6] = second compound 0.316 µM, first compound 0.000316 µM
[7] = second compound 0.316 µM, first compound 0.001 µM
[8] = second compound 0.316 µM, first compound 0.00316 µM
[9] = second compound 0.316 µM, first compound 0.01 µM
[10] = second compound 0.316 µM, first compound 0.0316 µM
[11] = second compound 1 µM, first compound 0.000316 µM
[12] = second compound 1 µM, first compound 0.001 µM
[13] = second compound 1 µM, first compound 0.00316 µM
[14] = second compound 1 µM, first compound 0.01 µM
[15] = second compound 1 µM, first compound 0.0316 µM
[16] = second compound 3.16 µM, first compound 0.000316 µM
[17] = second compound 3.16 µM, first compound 0.001 µM
[18] = second compound 3.16 µM, first compound 0.00316 µM
[19] = second compound 3.16 µM, first compound 0.01 µM
[20] = second compound 3.16 µM, first compound 0.0316 µM
[21] = second compound 10 µM, first compound 0.000316 µM
[22] = second compound 10 µM, first compound 0.001 µM
[23] = second compound 10 µM, first compound 0.00316 µM
[24] = second compound 10 µM, first compound 0.01 µM
[25] = second compound 10 µM, first compound 0.0316 µM
[26] = second compound 0.1 µM, first compound 0.1 µM
[27] = second compound 0.316 µM, first compound 0.1 µM
[28] = second compound 1 µM, first compound 0.1 µM
[29] = second compound 3.16 µM, first compound 0.1 µM
[30] = second compound 10 µM, first compound 0.1 µM
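Also: spheroids exposed to compounds for seven days before readout.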

| Structure (SMILES) | IC50 (second compound 0.1 µM) [µM] | IC50 (second compound 0.316 µM) [µM] | IC50 (second compound 1 µM) [µM] | IC50 (second compound 3.16 µM) [µM] | IC50 (second compound 10 µM) [µM] | viability, T/C [1] [%] | viability, T/C [2] [%] | viability, T/C [3] [%] | viability, T/C [4] [%] | viability, T/C [5] [%] | viability, T/C [6] [%] | viability, T/C [7] [%] | viability, T/C [9] [%] | viability, T/C [10] [%] | viability, T/C [14] [%] | viability, T/C [15] [%] | viability, T/C [19] [%] | viability, T/C [20] [%] | viability, T/C [24] [%] | viability, T/C [25] [%] | other results |
| --- | --- | --- | --- | --- | --- | --- | --- | --- | --- | --- | --- | --- | --- | --- | --- | --- | --- | --- | --- | --- | --- |
| CC(=O)Nc1cccc(-n2c(=O)n(C3CC3)c(=O)c3c(Nc4ccc(I)cc4F)n(C)c(=O)c(C)c32)c1 + CC1OCC2(CCN(c3cnc(Sc4ccnc(N)c4Cl)c(N)n3)CC2)C1N | < 0.0001 | < 0.0001 | < 0.0001 | < 0.0001 | < 0.0001 | 10.6 | 8.26 | 7.14 | 6.71 | 4.89 | 9.13 | 6.31 | 5.73 | 4.97 | 5.41 | 4.31 | 3.76 | 3.53 | 3.6 | 3.62 | viability, T/C (second compound 0.1 µM, first compound 0.0001 µM): 25%; viability, T/C (second compound 0.316 µM, first compound 0.0001 µM): 13.9%; viability, T/C [8]: 6.44%; viability, T/C (second compound 1 µM, first compound 0.0001 µM): 12.5%; viability, T/C [11]: 6.75%; viability, T/C [12]: 5.3%; viability, T/C [13]: 5.39%; viability, T/C (second compound 3.16 µM, first compound 0.0001 µM): 16.2%; viability, T/C [16]: 6.1%; viability, T/C [17]: 5.56%; viability, T/C [18]: 4.05%; viability, T/C (second compound 10 µM, first compound 0.0001 µM): 18.9%; viability, T/C [21]: 6.01%; viability, T/C [22]: 3.71%; viability, T/C [23]: 3.71% |
| CC(=O)OC12COC1CC(O)C1(C)C(=O)C(O)C3=C(C)C(OC(=O)C(O)C(NC(=O)OC(C)(C)C)c4ccccc4)CC(O)(C(OC(=O)c4ccccc4)C21)C3(C)C (stereo not given) + CC1OCC2(CCN(c3cnc(Sc4ccnc(N)c4Cl)c(N)n3)CC2)C1N | < 0.01 | < 0.01 | < 0.01 | < 0.01 | < 0.01 |  |  |  | 18 | 28.1 |  |  | 21.6 | 22.9 | 22.4 | 26.9 | 21.5 | 28.4 | 19.9 | 24.5 | viability, T/C [26]: 21.9%; viability, T/C (second compound 0.1 µM, first compound 0.316 µM): 27.2%; viability, T/C (second compound 0.1 µM, first compound 1 µM): 28.7%; viability, T/C (second compound 0.1 µM, first compound 3.16 µM): 36.1%; viability, T/C [27]: 29.1%; viability, T/C (second compound 0.316 µM, first compound 0.316 µM): 27.9%; viability, T/C (second compound 0.316 µM, first compound 1 µM): 29.7%; viability, T/C (second compound 0.316 µM, first compound 3.16 µM): 35.2%; viability, T/C [28]: 27.5%; viability, T/C (second compound 1 µM, first compound 0.316 µM): 27.6%; viability, T/C (second compound 1 µM, first compound 1 µM): 33.9%; viability, T/C (second compound 1 µM, first compound 3.16 µM): 43.5%; viability, T/C [29]: 22.5%; viability, T/C (second compound 3.16 µM, first compound 0.316 µM): 25.4%; viability, T/C (second compound 3.16 µM, first compound 1 µM): 26%; viability, T/C (second compound 3.16 µM, first compound 3.16 µM): 28.3%; viability, T/C [30]: 28.3%; viability, T/C (second compound 10 µM, first compound 0.316 µM): 24.1%; viability, T/C (second compound 10 µM, first compound 1 µM): 31.7%; viability, T/C (second compound 10 µM, first compound 3.16 µM): 38.5% |
| CN(C)C/C=C/C(=O)Nc1cc2c(Nc3ccc(F)c(Cl)c3)ncnc2cc1O[C@H]1CCOC1 + CC1OCC2(CCN(c3cnc(Sc4ccnc(N)c4Cl)c(N)n3)CC2)C1N | > 0.1 | > 0.1 | > 0.1 | > 0.1 | > 0.1 | 84.1 | 95.7 | 105 | 114 | 119 | 106 | 105 | 110 | 117 | 107 | 116 | 102 | 96 | 110 | 104 | viability, T/C [26]: 103%; viability, T/C [8]: 109%; viability, T/C [27]: 115%; viability, T/C [11]: 92.3%; viability, T/C [12]: 111%; viability, T/C [13]: 97.4%; viability, T/C [28]: 105%; viability, T/C [16]: 99.1%; viability, T/C [17]: 107%; viability, T/C [18]: 105%; viability, T/C [29]: 88.1%; viability, T/C [21]: 99.2%; viability, T/C [22]: 117%; viability, T/C [23]: 108%; viability, T/C [30]: 95.8% |
